Source: patent publication US20230143596A1, “PESTICIDALLY ACTIVE DIAZINE-BISAMIDE COMPOUNDS” (SYNGENTA CROP PROTECTION AG, priority 2020, published 2023)

Key:
Chilo suppressalis = experiment: Example B3: Chilo suppressalis (striped rice stemborer), artificial diet; format: in vivo; conditions: 144 h, application rate 200 ppm, L2 larvae, 6 days after infestation, vs untreated, read-out: control in at least one of the three categories (mortality, anti-feedant effect, or growth inhibition)
Description: Example B3: Chilo suppressalis (Striped Rice Stemborer)
24-well microtiter plates with artificial diet were treated with aqueous test solutions prepared from 10′000 ppm DMSO stock solutions by pipetting. After drying, the plates were infested with L2 larvae (6-8 per well). The samples were assessed for mortality, anti-feeding effect, and growth inhibition in comparison to untreated samples 6 days after infestation. Control of Chilo suppressalis by a test sample is given when at least one of the categories mortality, anti-feedant effect, and growth inhibition is higher than the untreated sample.

Spodoptera littoralis = experiment: Example B6: Spodoptera littoralis (Egyptian cotton leaf worm), cotton leaf discs sprayed; format: in vivo; conditions: foliar, 72 h, application rate 200 ppm, L1 larvae, 3 days after infestation, vs untreated, read-out: control in at least one of the three categories (mortality, anti-feedant effect, or growth inhibition)
Description: Example B6: Spodoptera littoralis (Egyptian Cotton Leaf Worm)
Cotton leaf discs were placed onto agar in 24-well microtiter plates and sprayed with aqueous test solutions prepared from 10′000 ppm DMSO stock solutions. After drying the leaf discs were infested with five L1 larvae. The samples were assessed for mortality, anti-feeding effect, and growth inhibition in comparison to untreated samples 3 days after infestation. Control of Spodoptera littoralis by a test sample is given when at least one of the categories mortality, anti-feedant effect, and growth inhibition is higher than the untreated sample.

Plutella xylostella = experiment: Example B4: Plutella xylostella (diamond back moth), artificial diet; format: in vivo; conditions: 192 h, application rate 200 ppm, eggs, 8 days after infestation, vs untreated, read-out: control in at least one of the two categories (mortality or growth inhibition)
Description: Example B4: Plutella xylostella (Diamond Back Moth)
24-well microtiter plates with artificial diet were treated with aqueous test solutions prepared from 10′000 ppm DMSO stock solutions by pipetting. After drying, Plutella eggs were pipetted through a plastic stencil onto a gel blotting paper and the plate was closed with it. The samples were assessed for mortality and growth inhibition in comparison to untreated samples 8 days after infestation. The following compounds gave an effect of at least 80% control in at least one of the two categories (mortality or growth inhibition) at an application rate of 200 ppm: […]

Diabrotica balteata = experiment: Example B1: Diabrotica balteata (corn root worm), maize sprouts sprayed; format: in vivo; conditions: 96 h, application rate 200 ppm, L2 larvae, 4 days after infestation, vs untreated, read-out: control in at least one of the two categories (mortality or growth inhibition)
Description: Example B1: Diabrotica balteata (Corn Root Worm)
Maize sprouts placed onto an agar layer in 24-well microtiter plates were treated with aqueous test solutions prepared from 10′000 ppm DMSO stock solutions by spraying. After drying, the plates were infested with L2 larvae (6 to 10 per well). The samples were assessed for mortality and growth inhibition in comparison to untreated samples 4 days after infestation.
(§1) The following compounds gave an effect of at least 80% control in at least one of the two categories (mortality or growth inhibition) at an application rate of 200 ppm: […]

Euschistus heros = experiment: Example B2: Euschistus heros (neotropical brown stink bug), soybean leaves sprayed; format: in vivo; conditions: 120 h, application rate 200 ppm, N2 nymphs, 5 days after infestation, vs untreated, read-out: control in at least one of the two categories (mortality or growth inhibition)
Description: Example B2: Euschistus heros (Neotropical Brown Stink Bug)
Soybean leaves on agar in 24-well microtiter plates were sprayed with aqueous test solutions prepared from 10′000 ppm DMSO stock solutions. After drying the leaves were infested with N2 nymphs. The samples were assessed for mortality and growth inhibition in comparison to untreated samples 5 days after infestation.
as §1

| SMILES | melting point [°C] | further results |
| --- | --- | --- |
| CCNC(=O)c1nccnc1C(C)NC(=O)c1cc(C(F)(F)F)cc(C(F)(F)F)c1 (stereo not shown) [Compound P1, 3-[1-[[3,5-bis(trifluoromethyl)benzoyl]amino]ethyl]-N-ethyl-pyrazine-2-carboxamide] | – | percent control (mortality, anti-feedant effect or growth inhibition) at 200 ppm (Chilo suppressalis): ≥ 80%; percent control (mortality, anti-feedant effect or growth inhibition) at 200 ppm (Spodoptera littoralis): ≥ 80%; percent control (mortality or growth inhibition) at 200 ppm (Plutella xylostella): ≥ 80%; percent control (mortality or growth inhibition) at 200 ppm (Diabrotica balteata): ≥ 80%; percent control (mortality or growth inhibition) at 200 ppm (Euschistus heros): ≥ 80% |
| CCCCNC(=O)c1nccnc1C(C)NC(=O)c1cc(C(F)(F)F)cc(C(F)(F)F)c1 (stereo not shown) [Compound P3, 3-[1-[[3,5-bis(trifluoromethyl)benzoyl]amino]ethyl]-N-butyl-pyrazine-2-carboxamide] | – | percent control (mortality, anti-feedant effect or growth inhibition) at 200 ppm (Chilo suppressalis): ≥ 80% |
| CC(NC(=O)c1cc(C(F)(F)F)cc(C(F)(F)F)c1)c1nccnc1C(=O)NC1CC1 (stereo not shown) [Compound P5, 3-[1-[[3,5-bis(trifluoromethyl)benzoyl]amino]ethyl]-N-cyclopropyl-pyrazine-2-carboxamide] | – | percent control (mortality, anti-feedant effect or growth inhibition) at 200 ppm (Chilo suppressalis): ≥ 80%; percent control (mortality, anti-feedant effect or growth inhibition) at 200 ppm (Spodoptera littoralis): ≥ 80%; percent control (mortality or growth inhibition) at 200 ppm (Plutella xylostella): ≥ 80% |
| C=CCNC(=O)c1nccnc1C(C)NC(=O)c1cc(C(F)(F)F)cc(C(F)(F)F)c1 (stereo not shown) [Compound P6, N-allyl-3-[1-[[3,5-bis(trifluoromethyl)benzoyl]amino]ethyl]pyrazine-2-carboxamide] | – | percent control (mortality, anti-feedant effect or growth inhibition) at 200 ppm (Chilo suppressalis): ≥ 80%; percent control (mortality or growth inhibition) at 200 ppm (Plutella xylostella): ≥ 80% |
| CCCNC(=O)c1nccnc1C(C)NC(=O)c1cc(C(F)(F)F)cc(C(F)(F)F)c1 (stereo not shown) [P.2, 3-[1-[[3,5-bis(trifluoromethyl)benzoyl]amino]ethyl]-N-propyl-pyrazine-2-carboxamide] | 127 | – |
| COCCNC(=O)c1nccnc1C(C)NC(=O)c1cc(C(F)(F)F)cc(C(F)(F)F)c1 (stereo not shown) [P.4, 3-[1-[[3,5-bis(trifluoromethyl)benzoyl]amino]ethyl]-N-(2-methoxyethyl)pyrazine-2-carboxamide] | 128 | – |
| CC(NC(=O)c1cc(C(F)(F)F)cc(C(F)(F)F)c1)c1nccnc1C(=O)Nc1ncccn1 (stereo not shown) [P.7, 3-[1-[[3,5-bis(trifluoromethyl)benzoyl]amino]ethyl]-N-pyrimidin-2-yl-pyrazine-2-carboxamide] | 201 | – |
| CCNC(=O)c1nccnc1C(C)NC(=O)c1cc(OCC(F)(F)F)cc(C(F)(F)F)c1 (stereo not shown) [P.8, N-ethyl-3-[1-[[3-(2,2,2-trifluoroethoxy)-5-(trifluoromethyl)benzoyl]amino]ethyl]pyrazine-2-carboxamide] | 136 | – |
| CCNC(=O)c1nccnc1C(C)NC(=O)c1cc(OCC(F)F)cc(C(F)(F)F)c1 (stereo not shown) [P.9, 3-[1-[[3-(2,2-difluoroethoxy)-5-(trifluoromethyl)benzoyl]amino]ethyl]-N-ethyl-pyrazine-2-carboxamide] | 134 | – |
| CC(NC(=O)c1cc(C(F)(F)F)cc(C(F)(F)F)c1)c1nccnc1C(=O)Nc1ccc(C#N)cn1 (stereo not shown) [P.10, 3-[1-[[3,5-bis(trifluoromethyl)benzoyl]amino]ethyl]-N-(5-cyano-2-pyridyl)pyrazine-2-carboxamide] | 215 | – |
| CC(NC(=O)c1cc(C(F)(F)F)cc(C(F)(F)F)c1)c1nccnc1C(=O)NCC#N (stereo not shown) [P.11, 3-[1-[[3,5-bis(trifluoromethyl)benzoyl]amino]ethyl]-N-(cyanomethyl)pyrazine-2-carboxamide] | 193 | – |
| CC(NC(=O)c1cc(C(F)(F)F)cc(C(F)(F)F)c1)c1nccnc1C(=O)Nc1ccc(C#N)cc1 (stereo not shown) [P.12, 3-[1-[[3,5-bis(trifluoromethyl)benzoyl]amino]ethyl]-N-(4-cyanophenyl)pyrazine-2-carboxamide] | 241 | – |

Continued, in another order:

| melting point [°C] | SMILES | further results |
| --- | --- | --- |
| 75 | CCN(C)C(=O)c1nccnc1C(C)NC(=O)c1cc(C(F)(F)F)cc(C(F)(F)F)c1 (stereo not shown) [P.13, 3-[1-[[3,5-bis(trifluoromethyl)benzoyl]amino]ethyl]-N-ethyl-N-methyl-pyrazine-2-carboxamide] | – |
| 81 | CC(NC(=O)c1cc(C(F)(F)F)cc(C(F)(F)F)c1)c1nccnc1C(=O)N1CCOCC1 (stereo not shown) [P.14, N-[1-[3-(morpholine-4-carbonyl)pyrazin-2-yl]ethyl]-3,5-bis(trifluoromethyl)benzamide] | – |
| 195 | CC(NC(=O)c1cc(C(F)(F)F)cc(C(F)(F)F)c1)c1nccnc1C(=O)NC(C)(C)C#N (stereo not shown) [P.15, 3-[1-[[3,5-bis(trifluoromethyl)benzoyl]amino]ethyl]-N-(1-cyano-1-methyl-ethyl)pyrazine-2-carboxamide] | – |
| 123 | CC(NC(=O)c1cc(C(F)(F)F)cc(C(F)(F)F)c1)c1nccnc1C(=O)NC1(C#N)CC1 (stereo not shown) [P.16, 3-[1-[[3,5-bis(trifluoromethyl)benzoyl]amino]ethyl]-N-(1-cyanocyclopropyl)pyrazine-2-carboxamide] | – |
| 132 | COCC(C)(C)NC(=O)c1nccnc1C(C)NC(=O)c1cc(C(F)(F)F)cc(C(F)(F)F)c1 (stereo not shown) [P.17, 3-[1-[[3,5-bis(trifluoromethyl)benzoyl]amino]ethyl]-N-(2-methoxy-1,1-dimethyl-ethyl)pyrazine-2-carboxamide] | – |
| 127 | COCC(C)NC(=O)c1nccnc1C(C)NC(=O)c1cc(C(F)(F)F)cc(C(F)(F)F)c1 (stereo not shown) [P.18, 3-[1-[[3,5-bis(trifluoromethyl)benzoyl]amino]ethyl]-N-(2-methoxy-1-methyl-ethyl)pyrazine-2-carboxamide] | – |
| 164 | CNC(=O)c1nccnc1C(C)NC(=O)c1cc(C(F)(F)F)cc(C(F)(F)F)c1 (stereo not shown) [P.19, 3-[1-[[3,5-bis(trifluoromethyl)benzoyl]amino]ethyl]-N-methyl-pyrazine-2-carboxamide] | – |
| 68 | CC(NC(=O)c1cc(C(F)(F)F)cc(C(F)(F)F)c1)c1nccnc1C(=O)NC1COC1 (stereo not shown) [P.20, 3-[1-[[3,5-bis(trifluoromethyl)benzoyl]amino]ethyl]-N-(oxetan-3-yl)pyrazine-2-carboxamide] | – |
| 156 | CC(NC(=O)c1cc(C(F)(F)F)cc(C(F)(F)F)c1)c1nccnc1C(=O)NCCC#N (stereo not shown) [P.21, 3-[1-[[3,5-bis(trifluoromethyl)benzoyl]amino]ethyl]-N-(2-cyanoethyl) pyrazine-2-carboxamide] | – |
